Experiments:
[1] = tested on: wild-type mouse lineage-depleted bone marrow cells; assay: Colony formation assay of wild-type mouse lineage-depleted bone marrow cells; type: cell-based; conditions: 12 days
Experimental: Mouse bone marrow-derived lineage-depleted cells (enriched for hematopoietic stem and progenitor cells but not a pure population) were obtained. Wild-type mouse lineage-depleted bone marrow cells from two separate mice were plated into a standard colony formation assay in the presence of compound 4 (100 nM and 500 nM), vehicle (0.1% DMSO), or nothing. After 12 days, hematopoietic colonies were enumerated (BFU-E, CFU-GM, and CFU-GEMM).

SAECs [2] = assay: Alamar Blue Proliferation Assay in SAECs; type: cell-based, human; conditions: 3 days, 1% DMSO, different concentrations
Experimental: Human SAECs or human fibroblasts were grown in the presence of different concentrations of compound 4 in a final concentration of 1% DMSO in the medium. After 3 days the cells were harvested and proliferation was measured using the Alamar Blue Proliferation Assay.

lung fibroblasts = assay: Long-term culture of lung fibroblasts; type: cell-based, human
telomerase = telomerase (Homo sapiens, UniProt O14746); assay: Telomerase activation in short-term liquid culture of human bone marrow-derived CD34+ hematopoietic progenitor cells (gel-TRAP); type: cell-based; conditions: huCD34+ cells, 100 nM, 3 days
Chain of telomerase (O14746 whole entry): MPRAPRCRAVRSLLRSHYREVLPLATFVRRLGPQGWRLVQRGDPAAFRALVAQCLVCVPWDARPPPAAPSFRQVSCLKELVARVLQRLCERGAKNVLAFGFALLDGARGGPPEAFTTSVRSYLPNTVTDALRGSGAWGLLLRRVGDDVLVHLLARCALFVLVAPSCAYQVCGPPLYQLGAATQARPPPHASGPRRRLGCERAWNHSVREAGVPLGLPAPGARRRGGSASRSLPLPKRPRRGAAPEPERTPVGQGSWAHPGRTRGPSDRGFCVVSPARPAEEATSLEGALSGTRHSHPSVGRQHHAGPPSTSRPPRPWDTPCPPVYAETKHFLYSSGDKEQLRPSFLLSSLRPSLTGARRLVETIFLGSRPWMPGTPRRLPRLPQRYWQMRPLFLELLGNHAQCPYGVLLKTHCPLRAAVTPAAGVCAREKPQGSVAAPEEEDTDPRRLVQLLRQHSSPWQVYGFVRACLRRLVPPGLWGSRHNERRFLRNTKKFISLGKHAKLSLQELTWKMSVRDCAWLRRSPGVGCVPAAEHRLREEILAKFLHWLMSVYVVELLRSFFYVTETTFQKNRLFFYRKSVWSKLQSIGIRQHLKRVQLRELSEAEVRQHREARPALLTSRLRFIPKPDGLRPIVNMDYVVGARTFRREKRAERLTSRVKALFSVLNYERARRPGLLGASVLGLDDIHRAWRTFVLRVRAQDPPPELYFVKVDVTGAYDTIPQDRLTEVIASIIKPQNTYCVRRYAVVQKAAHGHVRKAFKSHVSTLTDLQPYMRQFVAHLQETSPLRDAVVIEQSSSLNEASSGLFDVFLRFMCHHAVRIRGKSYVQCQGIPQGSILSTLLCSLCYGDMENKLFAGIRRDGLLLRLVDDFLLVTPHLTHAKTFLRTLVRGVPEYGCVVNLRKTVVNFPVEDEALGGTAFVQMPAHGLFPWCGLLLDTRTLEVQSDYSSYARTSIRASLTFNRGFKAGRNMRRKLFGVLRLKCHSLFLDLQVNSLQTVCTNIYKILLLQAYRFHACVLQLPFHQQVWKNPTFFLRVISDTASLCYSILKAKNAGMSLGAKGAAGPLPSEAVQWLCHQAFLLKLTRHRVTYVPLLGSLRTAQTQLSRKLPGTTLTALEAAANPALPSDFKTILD
Experimental: Human bone marrow-derived CD34+ hematopoietic progenitor cells were obtained from a healthy donor.
Human bone marrow-derived CD34+ hematopoietic progenitor cells were grown in Iscove's Modified Dulbecco's Medium (IMDM) (Invitrogen, CA)+10% fetal bovine serum (FBS) for 3 days in the presence of compound 4 (1 uM, 100 nM, 10 nM), vehicle (1% DMSO), or nothing. Telomerase activity increased by ˜60-70% in the 100 nM compound 4 sample relative to the vehicle control (as assessed by traditional gel-TRAP assay).

huCD34+ cells = assay: Colony formation assay of huCD34+ cells; type: cell-based, human; conditions: 100 nM, 14 days
Experimental: Human hematopoietic progenitor CD34+ cells (healthy donor) were plated into a standard colony formation assay in the presence of compound 4 (100 nM), vehicle (0.1% DMSO), or nothing. After 14 days, hematopoietic colonies were enumerated (CFU-E, […], CFU-GM, and CFU-GEMM). The plates containing compound 4 had 17% more colony forming units than vehicle alone. (Total colony counts were: untreated, 106.5; vehicle-treated, 103.5; compound 4-treated, 121.5)

SAECs [3] = assay: Long-term replicative capacity of SAECs in continuous culture; type: cell-based, human; conditions: 0.1 μM, 60 days continuous culture
Experimental: SAECs were treated continuously with 0.1 μM of compound 4 in a final concentration of 0.004% ethanol for 60 days in continuous culture. Compound 4 increased the long-term replicative capacity of SAECs by about 2 population doublings (4× increase in calculated cell number).

[4] = parameters: species or system male Beagle dogs; conditions: male, Beagle, dog, in vivo, po, 10 mg/kg
Experimental: The plasma level of a compound following a single intravenous and oral administration in male Beagle dogs was determined. Plasma samples were collected and used to determine the plasma concentration of the compound and metabolites. In addition tissue samples, including whisker samples and PBMC cells were collected for telomerase activity analysis.
Male Beagle dogs were divided into treatment groups according to Table 5. The dogs were provided ad libitum SLAC-MO1 #W080701 (Shanghai Laboratories Animal Center, Shanghai, China) throughout the in-life portion of the study with the exception of the overnight fasting period prior to oral dosing. Water was available ad libitum.
The compounds were dissolved in 2% EtOH/98% water […] to yield a final concentration of 2.5 mg/ml and 1 mg/ml for both intravenous and oral administration, respectively. The concentration of each compound was confirmed by HPLC analysis.
Doses were administered intravenously via the left femoral vein and then by oral dosing one week later. Body weights were taken on the day of dose administration. Dose volume was determined based on individual body weight taken on day of dosing.
Blood samples (approximately 250 μL) were collected via right femoral vein into tubes containing K2-EDTA anticoagulant and 1 mg/ml NaF at appropriate time points. Blood was stored on ice and then plasma separated via centrifugation (8000 rpm×6 minutes). The plasma was stored at […] until LC-MS/MS analysis.

Matrigel plugs = assay: Administration to BALB/c mice: total RNA and capillary density in Matrigel plugs; type: in vivo; conditions: 10 mg/kg/day PO (BID)
Experimental: BALB/c mice (2-3 months) were dosed with compound 4 in 2% ethanol at 10 mg/kg/day PO (BID). Mice were pre-dosed for 1 day (Day −1). Matrigel™ (BDBiosciences, California) was injected subcutaneously in the abdomen on Day 0, and the Matrigel™ plugs were harvested on Day 12.
Total RNA, which reflects cell number, was increased 1.6-fold (p<0.2) n=5/group in Matrigel™ plugs after treatment with compound 4.
The other half of the Matrigel™ plug was used for histology and CD31 immunostaining to analyze capillary density (CD31 is a marker for endothelial cells, which line the capillaries). A 1.3-fold increase in capillary density in (CD-31 immuno staining) (p<0.5) n=5/group was observed after treatment with compound 4.

[5] = tested on: mTERT heterozygous mouse lineage-depleted bone marrow cells; assay: Colony formation assay of mTERT heterozygous mouse lineage-depleted bone marrow cells; type: cell-based; conditions: 12 days
Experimental: mTERT heterozygous mouse lineage-depleted bone marrow cells were plated into a standard colony formation assay in the presence of compound 4 (100 nm and 500 nM), vehicle (0.1% DMSO), or nothing. After 12 days, hematopoietic colonies were enumerated (BFU-E, CFU-GM, and CFU-GEMM). Total colony counts were: untreated, 67; vehicle-treated, 64; 100 nM compound 4, 68; and 500 nM compound 4, 77.

Compound `CC(C)C(N)C(=O)OC1CCC23CC24CCC2(C)C(C5(C)CCC(C(C)(C)O)O5)C(O)CC2(C)C4CC(O)C3C1(C)C` (stereo not drawn) [Compound 4, 2-(L)-Amino-3-methyl-butyric acid 6α,16β-dihydroxy-17-[5-(1-hydroxy-1-methyl-ethyl)-2-methyl-tetrahydro-furan-2-yl]-4,4,13,14-tetramethyl-tetradecahydro-cyclopropa[9,10]cyclopenta[a]phenanthren-3β-yl ester] has a BFU-E colonies ([1]; Mouse 1, 100 nM) of 50, a CFU-GEMM colonies ([1]; Mouse 1, 100 nM) of 0 and a CFU-GM colonies ([1]; Mouse 1, 100 nM) of 111. It also gave a Total colony counts ([1]; Mouse 1, 100 nM) of 161, a BFU-E colonies ([1]; Mouse 1, 500 nM) of 38 and a CFU-GEMM colonies ([1]; Mouse 1, 500 nM) of 1. It also gave a CFU-GM colonies ([1]; Mouse 1, 500 nM) of 124, a Total colony counts ([1]; Mouse 1, 500 nM) of 162 and a BFU-E colonies ([1]; Mouse 2, 100 nM) of 31. It also gave a CFU-GEMM colonies ([1]; Mouse 2, 100 nM) of 1, a CFU-GM colonies ([1]; Mouse 2, 100 nM) of 90 and a Total colony counts ([1]; Mouse 2, 100 nM) of 121. The BFU-E colonies ([1]; Mouse 2, 500 nM) was 29, the CFU-GEMM colonies ([1]; Mouse 2, 500 nM) was 2 and the CFU-GM colonies ([1]; Mouse 2, 500 nM) was 98. The Total colony counts ([1]; Mouse 2, 500 nM) was 129, the increased proliferation (SAECs [2]) was “about 50%” and the “effect in long-term culture” value (lung fibroblasts) was “No effect”. For the same compound, the “Telomerase activity increase relative to the vehicle control” value (telomerase) was 60-70%, the BFU-E colonies (huCD34+ cells) was 25.5 and the CFU-E colonies (huCD34+ cells) was 11. The CFU-GEMM colonies (huCD34+ cells) was 5, the CFU-GM colonies (huCD34+ cells) was 80 and the Total colony counts (huCD34+ cells) was 121.5. The “more colony forming units than vehicle alone” value (huCD34+ cells) was 17%, the “increase in calculated cell number” value (SAECs [3]) was 4 × and the “increase of long-term replicative capacity” value (SAECs [3]; 0.004% ethanol) was “about 2 population doublings”. The “Bioavailability % F” value [4] was 47%, the “Total RNA (reflects cell number) increase in Matrigel plugs” value (Matrigel plugs; Day 12, p<0.2) was 1.6 fold and the “increase in capillary density (CD-31 immuno staining)” value (Matrigel plugs; Day 12, p<0.5) was 1.3 fold. For the same compound, the BFU-E colonies ([5]; 100 nM) was 22, the CFU-E colonies ([5]; 100 nM) was 43 and the CFU-GEMM colonies ([5]; 100 nM) was 3. For the same compound, the Total colony counts ([5]; 100 nM) was 68, the BFU-E colonies ([5]; 500 nM) was 27 and the CFU-E colonies ([5]; 500 nM) was 48. The CFU-GEMM colonies ([5]; 500 nM) was 1 and the Total colony counts ([5]; 500 nM) was 77.

— patent US9403866B2, “Compositions and methods for increasing telomerase activity” (Telomerase Activation Sciences, Inc., priority 2009, dated 2016)
